{
  "source": "patent US10421755B2",
  "about": "“Salts of aza-bicyclic di-aryl ethers and methods to make them or their precursors” (Novartis AG, priority 2011, dated 2019)",
  "assay_type_in_all_cases": "physicochemical",
  "key": {"[1]": {"assay": "Hygroscopicity (moisture gain at relative humidity)", "design": "Hygroscopy @ 85% RH: unit not given here", "conditions": "for moisture gain: at 85% relative humidity (RH); for Hygroscopy @ 85% RH: comparison table, Example 7"}, "[2]": {"assay": "Loss on drying / initial water content", "design": "Initial water content: unit not given here", "conditions": "for Initial water content: comparison table, Example 7"}, "[3]": {"assay": "Stability in buffer solutions and in solid state"}, "[4]": {"assay": "Decomposition temperature", "design": "unit not given here", "conditions": "comparison table, Example 7"}, "[5]": {"assay": "Known multiple solid forms", "conditions": "comparison table, Example 7"}},
  "data": [
    {"smiles": "Cc1ccc(-c2ccc(O[C@H]3CN4CCC3CC4)cn2)cc1.O=C(O)/C=C\\C(=O)O", "note": "[mono-maleate salt, mono-maleate salt of (R)-3-(6-(4-methylphenyl)-pyridin-3-yloxy)-1-aza-bicyclo[2.2.2]octane]", "values": [
      {"measurement": "hygroscopicity (in words)", "setting": "[1]", "result": "slightly hygroscopic"},
      {"measurement": "moisture gain", "setting": "[1]", "result": 0.3, "unit": "%"},
      {"measurement": "Hygroscopy @ 85% RH", "setting": "[1]", "result": 0.3},
      {"measurement": "Loss on drying (LOD) of a sample", "setting": "[2]", "result": "< 0.03", "unit": "%"},
      {"measurement": "Initial water content", "setting": "[2]", "result": "<0.1"},
      {"measurement": "solid-state stability", "setting": "[3]", "result": "good"},
      {"measurement": "stability in buffer solutions", "setting": "[3]; many buffer solutions, various pH values", "result": "good stability"},
      {"measurement": "Decomposition temperature", "setting": "[4]", "result": 207},
      {"measurement": "Known Multiple forms", "setting": "[5]", "result": "No"}
    ]},
    {"smiles": "Cc1ccc(-c2ccc(O[C@H]3CN4CCC3CC4)cn2)cc1.O=C(O)CC(=O)O", "note": "[mono-malonate salt, mono-malonate salt of (R)-3-(6-(4-methylphenyl)-pyridin-3-yloxy)-1-aza-bicyclo[2.2.2]octane]", "values": [
      {"measurement": "hygroscopicity (in words)", "setting": "[1]", "result": "slightly hygroscopic"},
      {"measurement": "moisture gain", "setting": "[1]", "result": 1.3, "unit": "%"},
      {"measurement": "Hygroscopy @ 85% RH", "setting": "[1]", "result": 1.3},
      {"measurement": "Loss on drying (LOD) of a sample", "setting": "[2]", "result": 0, "unit": "%"},
      {"measurement": "Initial water content", "setting": "[2]", "result": "~0"},
      {"measurement": "Decomposition temperature", "setting": "[4]", "result": 148},
      {"measurement": "Known Multiple forms", "setting": "[5]", "result": "No"}
    ]},
    {"smiles": "Cc1ccc(-c2ccc(O[C@H]3CN4CCC3CC4)cn2)cc1.O=C(O)CCC(=O)O", "note": "[Form A of the mono-succinate salt, mono-succinate salt of (R)-3-(6-(4-methylphenyl)-pyridin-3-yloxy)-1-aza-bicyclo[2.2.2]octane]", "values": [
      {"measurement": "moisture gain", "setting": "[1]", "result": 0.3, "unit": "%"},
      {"measurement": "Hygroscopy @ 85% RH", "setting": "[1]", "result": 0.3},
      {"measurement": "Loss on drying (LOD) of a sample", "setting": "[2]", "result": "about 4.5%"},
      {"measurement": "Initial water content", "setting": "[2]", "result": "~4.5"},
      {"measurement": "Decomposition temperature", "setting": "[4]", "result": 222},
      {"measurement": "Known Multiple forms", "setting": "[5]", "result": "Yes"}
    ]},
    {"smiles": "Cc1ccc(-c2ccc(O[C@H]3CN4CCC3CC4)cn2)cc1.Cl", "note": "[mono-hydrochloride salt, mono-hydrochloride salt of (R)-3-(6-(4-methylphenyl)-pyridin-3-yloxy)-1-aza-bicyclo[2.2.2]octane]", "values": [
      {"measurement": "hygroscopicity (in words)", "setting": "[1]", "result": "hygroscopic"},
      {"measurement": "moisture gain", "setting": "[1]", "result": "about 5%"},
      {"measurement": "Hygroscopy @ 85% RH", "setting": "[1]", "result": "~5"},
      {"measurement": "Loss on drying (LOD) of a sample", "setting": "[2]", "result": "about 5%"},
      {"measurement": "Initial water content", "setting": "[2]", "result": "~5"},
      {"measurement": "Decomposition temperature", "setting": "[4]", "result": 262},
      {"measurement": "Known Multiple forms", "setting": "[5]", "result": "Yes"}
    ]},
    {"smiles": "Cc1ccc(-c2ccc(O[C@H]3CN4CCC3CC4)cn2)cc1.O=P(O)(O)O", "note": "[Form A of the mono-phosphate salt, mono-phosphate salt of (R)-3-(6-(4-methylphenyl)-pyridin-3-yloxy)-1-aza-bicyclo[2.2.2]octane]", "values": [
      {"measurement": "hygroscopicity (in words)", "setting": "[1]", "result": "slightly hygroscopic"},
      {"measurement": "moisture gain", "setting": "[1]", "result": 0.2, "unit": "%"},
      {"measurement": "Hygroscopy @ 85% RH", "setting": "[1]", "result": 0.2},
      {"measurement": "Loss on drying (LOD) of a sample", "setting": "[2]", "result": "about 0.5%"},
      {"measurement": "Initial water content", "setting": "[2]", "result": "~0.5"},
      {"measurement": "Decomposition temperature", "setting": "[4]", "result": 222},
      {"measurement": "Known Multiple forms", "setting": "[5]", "result": "Yes"}
    ]}
  ]
}
